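The compound was tested at five concentrations on cells cultured in 96-well plates, with a 48-hour exposure period. At the GI50, growth is halved. Definition used: TGI = concentration required for complete inhibition of growth.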
Legend:
Experiment in all cases: inhibition of tumour cell growth, NCI panel, 48 h
[1] = tested on: COLO 205 colon
[2] = tested on: SN12C renal
[3] = tested on: SW-620 colon
[4] = tested on: EKVX NSCLC
[5] = tested on: UACC-62 melanoma
[6] = tested on: UACC-257 melanoma
[7] = tested on: MDA-MB-231 breast
[8] = tested on: DU-145 prostate
[9] = tested on: SK-MEL-2 melanoma
[10] = tested on: U251 CNS

Compound: CN(C)CCCOc1cccc(NC2=C(Cl)C(=O)C(Nc3cccc(OCCCN(C)C)c3)=C(Cl)C2=O)c1
- GI50 [1]: 1560 nM
- TGI [1]: 3.34 µM
- GI50 [2]: 345 nM
- TGI [2]: 0.865 µM
- GI50 [3]: 276 nM
- TGI [3]: 0.766 µM
- GI50 [4]: 1190 nM
- TGI [4]: 2.54 µM
- GI50 [5]: 1500 nM
- TGI [5]: 2.95 µM
- GI50 [6]: 0.941 µM
- TGI [6]: 2.28 µM
- GI50 [7]: 655 nM
- TGI [7]: 1.6 µM
- GI50 [8]: 765 nM
- TGI [8]: 2 µM
- GI50 [9]: 1530 nM
- TGI [9]: 3.2 µM
- GI50 [10]: 1570 nM
- TGI [10]: 2.97 µM

Compound: COc1cc(OCc2cccc(-c3ccccc3)c2C)cc(OC)c1CN1CCCCC1C(=O)NCCOCCOCCN (configuration not stated)
- GI50 [1]: 1820 nM
- TGI [1]: 3.7 µM
- GI50 [2]: 2470 nM
- TGI [2]: 7.01 µM
- GI50 [3]: 1900 nM
- TGI [3]: 3.87 µM
- GI50 [4]: 3710 nM
- TGI [4]: 15.7 µM
- GI50 [5]: 1790 nM
- TGI [5]: 3.41 µM
- GI50 [6]: 1.83 µM
- TGI [6]: 3.68 µM
- GI50 [7]: 1800 nM
- TGI [7]: 3.84 µM
- GI50 [8]: 4610 nM
- TGI [8]: 16.1 µM
- GI50 [9]: 1960 nM
- TGI [9]: 4.03 µM
- GI50 [10]: 2100 nM
- TGI [10]: 4.44 µM

Compound: COc1cc([C@@H]2c3cc4c(cc3[C@H](OC(C)=O)[C@H]3COC(=O)[C@@H]23)OCO4)cc(OC)c1OC
- GI50 [1]: 272 nM
- TGI [1]: 0.678 µM
- GI50 [2]: 759 nM
- TGI [2]: > 100 µM
- GI50 [3]: 360 nM
- TGI [3]: > 100 µM
- GI50 [4]: 489 nM
- TGI [4]: > 100 µM
- GI50 [5]: 405 nM
- TGI [5]: > 100 µM
- TGI [6]: > 100 µM
- GI50 [7]: 388 nM
- TGI [7]: 3.44 µM
- GI50 [8]: 245 nM
- TGI [8]: 0.649 µM
- GI50 [9]: 342 nM
- GI50 [10]: 377 nM
- TGI [10]: > 100 µM

Compound: ClCc1cccc(Cn2cnc3c(Cl)nc(Cl)nc32)c1
- GI50 [1]: 2220 nM
- TGI [1]: 5.39 µM
- GI50 [2]: 2140 nM
- TGI [2]: 4.66 µM
- GI50 [3]: 1570 nM
- TGI [3]: 3.5 µM
- GI50 [4]: 1740 nM
- TGI [4]: 3.35 µM
- GI50 [5]: 1840 nM
- TGI [5]: 3.44 µM
- GI50 [6]: 1.86 µM
- TGI [6]: 3.45 µM
- GI50 [7]: 1950 nM
- TGI [7]: 3.76 µM
- GI50 [8]: 1590 nM
- TGI [8]: 2.98 µM
- GI50 [9]: 1980 nM
- TGI [9]: 4.44 µM
- GI50 [10]: 1700 nM
- TGI [10]: 3.09 µM

Compound: O=C1c2cccnc2-c2nc(-c3cccnc3)cc3c2c1nc1ccccc13
- GI50 [1]: 3330 nM
- TGI [1]: 10.9 µM
- GI50 [2]: 2180 nM
- TGI [2]: 5.02 µM
- GI50 [3]: 2280 nM
- TGI [3]: 5.63 µM
- GI50 [4]: 10600 nM
- TGI [4]: 32.7 µM
- GI50 [5]: 13300 nM
- TGI [5]: 28.3 µM
- GI50 [6]: 10.1 µM
- TGI [6]: 15.1 µM
- GI50 [7]: 4430 nM
- TGI [7]: > 72 µM
- GI50 [8]: 3000 nM
- TGI [8]: 8.31 µM
- GI50 [9]: 18000 nM
- TGI [9]: 33.8 µM
- GI50 [10]: 3610 nM
- TGI [10]: > 100 µM

Compound: Cc1cc(NCc2cc(Nc3ccnc4cc(Cl)ccc34)ccc2F)nc(N2CCOCC2)n1
- GI50 [2]: 1840 nM
- TGI [2]: 4.3 µM
- GI50 [3]: 1810 nM
- TGI [3]: 4.7 µM
- GI50 [4]: 3180 nM
- TGI [4]: 23.9 µM
- GI50 [7]: 1830 nM
- TGI [7]: 4.51 µM
- GI50 [8]: 3200 nM
- TGI [8]: 12.5 µM
- GI50 [9]: 1990 nM
- TGI [9]: 4.7 µM
- GI50 [10]: 1950 nM
- TGI [10]: 4.05 µM

Compound: Cn1cc(-c2cc(-c3cn(C)c4ccc(Cl)cc34)[nH]n2)c2cc(Cl)ccc21
- GI50 [1]: 2220 nM
- TGI [1]: 5.35 µM
- GI50 [3]: 3520 nM
- TGI [3]: 14.6 µM
- GI50 [4]: 3150 nM
- TGI [4]: 15 µM
- GI50 [5]: 1630 nM
- TGI [5]: 3.35 µM
- GI50 [6]: 4.26 µM
- TGI [6]: 34.2 µM
- GI50 [7]: 2950 nM
- TGI [7]: 15.1 µM
- GI50 [8]: 9600 nM
- TGI [8]: > 100 µM
- GI50 [9]: 2340 nM
- TGI [9]: 6.13 µM
- GI50 [10]: 3370 nM
- TGI [10]: 12.9 µM

Compound: CCCc1nc(Cl)nc(Cl)c1Cl
- TGI [2]: 2.13 µM
- TGI [3]: 2.17 µM
- TGI [4]: 2.63 µM
- TGI [5]: 2.07 µM
- TGI [6]: 2 µM
- TGI [7]: 2.07 µM
- TGI [8]: 9.93 µM
- TGI [9]: 2.07 µM
- TGI [10]: 2.05 µM

Compound: COc1ccc2c(c1)C(=O)/C(=C/c1cccc(OCC(=O)Nc3nc(C)c(C)s3)c1)O2
- GI50 [1]: 752 nM
- TGI [1]: 2.48 µM
- GI50 [2]: 171 nM
- TGI [2]: 2.66 µM
- GI50 [3]: 499 nM
- TGI [3]: 1.86 µM
- GI50 [4]: 677 nM
- TGI [4]: 15.3 µM
- GI50 [5]: 1970 nM
- TGI [5]: 7.98 µM
- GI50 [6]: 12.8 µM
- TGI [6]: 26.3 µM
- GI50 [7]: 121 nM
- TGI [7]: 0.738 µM
- GI50 [8]: 121 nM
- TGI [8]: 0.67 µM
- GI50 [9]: 19.9 nM
- TGI [9]: 0.047 µM
